Measured values as given in article PMC5027092, “Specific histamine binding activity of a new lipocalin from Hyalomma asiaticum (Ixodidae) and therapeutic effects on allergic asthma in mice” (Parasites & Vectors, 2016).

Target: T1, Ha24 (rHa24-GST) (Hyalomma asiaticum, UniProt A0A1W5TAU9)
T1 construct: precursor 227 aa with 26-residue signal peptide, mature 201 aa
T1 sequence (A0A1W5TAU9 27-227): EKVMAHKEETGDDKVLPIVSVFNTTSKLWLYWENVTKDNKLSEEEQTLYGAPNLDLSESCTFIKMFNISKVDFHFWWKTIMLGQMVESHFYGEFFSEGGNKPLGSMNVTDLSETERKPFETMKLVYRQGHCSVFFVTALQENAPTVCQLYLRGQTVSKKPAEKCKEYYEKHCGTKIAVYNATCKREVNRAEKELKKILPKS
Assay: ELISA with immobilised rHa24-GST and histamine-HRP conjugate, OD […] nm
Format: binding
Details: labelled compound (histamine-HRP); protein coated at 1.25-10 ug/ml, pH 9.6; 37 °C, 2 h; GST as control

SMILES: NCCc1c[nH]cn1 [histamine]
- ELISA with immobilised rHa24-GST and histamine-HRP conjugate, OD 650 nm: The results showed that rHa24 has the ability to bind with histamine
